Assays:
Thromboxane A2 receptor = biological target: T1, Thromboxane A2 receptor (Homo sapiens, UniProt P21731); assay type: functional, cell-based
T1 sequence (P21731 whole entry): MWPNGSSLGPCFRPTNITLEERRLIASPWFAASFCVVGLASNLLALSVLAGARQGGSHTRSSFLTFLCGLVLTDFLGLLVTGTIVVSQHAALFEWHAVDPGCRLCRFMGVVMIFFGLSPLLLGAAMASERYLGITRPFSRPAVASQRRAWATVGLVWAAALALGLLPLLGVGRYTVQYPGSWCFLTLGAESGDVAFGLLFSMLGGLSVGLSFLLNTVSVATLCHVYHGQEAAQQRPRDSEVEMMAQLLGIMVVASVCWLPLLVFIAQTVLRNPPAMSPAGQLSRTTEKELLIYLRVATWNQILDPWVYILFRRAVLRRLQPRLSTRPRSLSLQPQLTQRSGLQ

Progesterone receptor = biological target: T2, Progesterone receptor (Homo sapiens, UniProt P06401)
T2 sequence (P06401 whole entry): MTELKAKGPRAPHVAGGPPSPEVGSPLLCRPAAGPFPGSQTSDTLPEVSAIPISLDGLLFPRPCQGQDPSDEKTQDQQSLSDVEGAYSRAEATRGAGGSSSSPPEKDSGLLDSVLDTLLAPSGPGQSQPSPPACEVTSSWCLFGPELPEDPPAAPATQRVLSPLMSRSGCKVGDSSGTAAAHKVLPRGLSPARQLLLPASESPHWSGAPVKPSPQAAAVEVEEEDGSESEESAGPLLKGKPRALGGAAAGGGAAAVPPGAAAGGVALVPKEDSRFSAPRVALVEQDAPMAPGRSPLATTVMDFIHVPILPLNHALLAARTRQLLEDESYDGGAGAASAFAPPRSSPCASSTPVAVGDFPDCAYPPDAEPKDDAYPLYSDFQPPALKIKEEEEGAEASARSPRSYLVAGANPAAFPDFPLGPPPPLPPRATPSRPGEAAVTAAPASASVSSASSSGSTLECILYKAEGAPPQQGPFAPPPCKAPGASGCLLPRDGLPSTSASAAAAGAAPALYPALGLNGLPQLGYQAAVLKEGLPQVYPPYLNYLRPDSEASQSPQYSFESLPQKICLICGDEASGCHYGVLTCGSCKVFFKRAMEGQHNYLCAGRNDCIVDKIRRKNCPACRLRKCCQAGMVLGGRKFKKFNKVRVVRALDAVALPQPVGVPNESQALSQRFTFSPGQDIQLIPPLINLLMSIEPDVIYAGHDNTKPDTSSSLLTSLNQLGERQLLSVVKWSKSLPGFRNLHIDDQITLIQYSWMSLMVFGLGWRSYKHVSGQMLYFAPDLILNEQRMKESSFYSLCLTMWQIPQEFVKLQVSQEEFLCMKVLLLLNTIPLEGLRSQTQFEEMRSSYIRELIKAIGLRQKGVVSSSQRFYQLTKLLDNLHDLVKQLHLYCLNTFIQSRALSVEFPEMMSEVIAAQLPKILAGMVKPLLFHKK

[1] = biological target: 5-hydroxytryptamine receptor 2B (Homo sapiens, UniProt P41595); assay type: functional, cell-based
Acetylcholinesterase = Acetylcholinesterase (Homo sapiens, UniProt P22303); assay type: functional
Prothrombin = Prothrombin (Homo sapiens, UniProt P00734); assay type: functional
Estrogen receptor = biological target: T3, Estrogen receptor (Homo sapiens, UniProt P03372)
T3 sequence (P03372 whole entry): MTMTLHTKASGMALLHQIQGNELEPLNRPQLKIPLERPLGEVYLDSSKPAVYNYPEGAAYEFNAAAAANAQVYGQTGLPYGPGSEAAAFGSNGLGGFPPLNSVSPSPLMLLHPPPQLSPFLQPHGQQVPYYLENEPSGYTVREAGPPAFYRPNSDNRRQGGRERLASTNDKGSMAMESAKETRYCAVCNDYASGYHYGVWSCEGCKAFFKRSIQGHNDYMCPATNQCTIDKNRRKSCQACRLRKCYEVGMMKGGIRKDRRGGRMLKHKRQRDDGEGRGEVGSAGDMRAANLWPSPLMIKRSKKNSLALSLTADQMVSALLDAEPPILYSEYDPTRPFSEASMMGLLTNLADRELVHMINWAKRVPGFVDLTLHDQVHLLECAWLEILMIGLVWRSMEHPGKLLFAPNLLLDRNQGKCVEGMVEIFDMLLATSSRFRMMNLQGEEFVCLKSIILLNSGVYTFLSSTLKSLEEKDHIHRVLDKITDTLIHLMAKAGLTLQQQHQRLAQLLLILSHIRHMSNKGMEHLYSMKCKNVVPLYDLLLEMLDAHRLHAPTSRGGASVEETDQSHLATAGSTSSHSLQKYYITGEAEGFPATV

Histamine H3 receptor = Histamine H3 receptor (Homo sapiens, UniProt Q9Y5N1)
[2] = biological target: T4, Alpha-1A adrenergic receptor (Homo sapiens, UniProt P35348); assay type: functional, cell-based
T4 sequence (P35348 whole entry): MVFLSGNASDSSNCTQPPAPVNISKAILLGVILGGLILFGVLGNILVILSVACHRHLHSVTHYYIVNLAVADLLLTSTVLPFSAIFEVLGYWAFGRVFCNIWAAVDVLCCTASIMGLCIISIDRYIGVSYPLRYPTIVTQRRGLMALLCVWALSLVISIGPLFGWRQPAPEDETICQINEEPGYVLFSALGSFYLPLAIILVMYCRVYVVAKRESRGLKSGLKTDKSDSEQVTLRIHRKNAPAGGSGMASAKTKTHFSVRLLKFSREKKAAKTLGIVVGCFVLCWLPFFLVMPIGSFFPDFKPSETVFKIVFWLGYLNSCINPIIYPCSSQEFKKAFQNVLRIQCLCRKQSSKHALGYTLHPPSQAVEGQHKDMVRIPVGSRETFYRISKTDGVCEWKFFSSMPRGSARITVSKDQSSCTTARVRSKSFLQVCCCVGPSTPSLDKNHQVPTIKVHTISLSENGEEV
Also: assay procedure not described here.

Acetylcholinesterase, sequence (P22303 whole entry): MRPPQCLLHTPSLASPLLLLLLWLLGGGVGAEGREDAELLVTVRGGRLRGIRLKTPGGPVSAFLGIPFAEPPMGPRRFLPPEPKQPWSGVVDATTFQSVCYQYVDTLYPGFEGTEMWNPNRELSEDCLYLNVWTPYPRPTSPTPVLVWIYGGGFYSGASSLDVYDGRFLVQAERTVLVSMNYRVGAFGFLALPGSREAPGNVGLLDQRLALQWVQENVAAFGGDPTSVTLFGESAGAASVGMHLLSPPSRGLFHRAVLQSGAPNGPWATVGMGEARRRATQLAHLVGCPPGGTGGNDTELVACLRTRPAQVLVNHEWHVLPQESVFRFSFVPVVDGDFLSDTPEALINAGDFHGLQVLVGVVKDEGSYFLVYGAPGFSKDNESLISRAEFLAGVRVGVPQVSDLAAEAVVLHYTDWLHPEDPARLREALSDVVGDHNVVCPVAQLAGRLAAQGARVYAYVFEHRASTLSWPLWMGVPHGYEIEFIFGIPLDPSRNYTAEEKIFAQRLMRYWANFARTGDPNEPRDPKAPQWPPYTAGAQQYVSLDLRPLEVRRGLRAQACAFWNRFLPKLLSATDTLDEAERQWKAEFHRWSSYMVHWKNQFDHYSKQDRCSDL
5-hydroxytryptamine receptor 2B, sequence (P41595 whole entry): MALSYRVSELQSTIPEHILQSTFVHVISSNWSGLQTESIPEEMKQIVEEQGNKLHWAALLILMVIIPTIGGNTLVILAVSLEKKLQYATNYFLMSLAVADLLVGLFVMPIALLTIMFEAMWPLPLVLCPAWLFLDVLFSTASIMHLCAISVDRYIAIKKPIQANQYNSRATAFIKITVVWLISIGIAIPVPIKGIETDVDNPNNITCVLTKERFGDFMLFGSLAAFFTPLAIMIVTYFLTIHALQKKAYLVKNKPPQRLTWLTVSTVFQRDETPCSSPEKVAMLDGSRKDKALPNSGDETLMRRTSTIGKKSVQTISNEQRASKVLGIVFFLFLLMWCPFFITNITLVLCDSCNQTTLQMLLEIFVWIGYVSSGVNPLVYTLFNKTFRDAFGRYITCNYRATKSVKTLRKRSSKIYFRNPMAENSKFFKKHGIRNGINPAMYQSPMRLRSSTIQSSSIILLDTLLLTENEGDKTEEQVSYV
Histamine H3 receptor, sequence (Q9Y5N1 whole entry): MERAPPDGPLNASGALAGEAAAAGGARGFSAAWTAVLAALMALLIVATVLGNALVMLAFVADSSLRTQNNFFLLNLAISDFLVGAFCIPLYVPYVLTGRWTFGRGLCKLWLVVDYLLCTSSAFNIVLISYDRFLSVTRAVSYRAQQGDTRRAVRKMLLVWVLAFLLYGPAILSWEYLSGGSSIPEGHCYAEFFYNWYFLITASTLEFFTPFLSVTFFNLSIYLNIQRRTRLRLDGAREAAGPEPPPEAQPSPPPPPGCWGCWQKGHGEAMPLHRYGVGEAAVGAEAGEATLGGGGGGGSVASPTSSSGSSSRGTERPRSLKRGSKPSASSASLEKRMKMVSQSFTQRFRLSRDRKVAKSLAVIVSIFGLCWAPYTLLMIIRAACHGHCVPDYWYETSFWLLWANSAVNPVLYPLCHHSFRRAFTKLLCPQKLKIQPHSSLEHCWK

SMILES	AC50 (Thromboxane A2 receptor)	AC50 (Progesterone receptor)	AC50 [1]	AC50 (Acetylcholinesterase)	AC50 (Prothrombin)	AC50 (Estrogen receptor)	AC50 (Histamine H3 receptor)	AC50 [2]
CSCC[C@H](N)C(=O)O [METHIONINE]	> 30 µM	> 30 µM	> 30 µM	> 30 µM	> 30 µM	> 30 µM	> 30 µM	
CC(NCCC(c1ccccc1)c1ccccc1)c1ccccc1 (stereo not given) [FENDILINE]	20.7 µM	> 30 µM	> 30 µM	> 30 µM	> 3 µM	> 30 µM	> 30 µM	
CC(C)N1CCN(c2ccc(OCC3COC(Cn4cncn4)(c4ccc(Cl)cc4Cl)O3)cc2)CC1 (stereo not given) [TERCONAZOLE]	20 µM	18.7 µM	> 30 µM	16.5 µM	> 30 µM	> 30 µM	0.096 µM	16 µM
Cc1ccc(Cl)c(Nc2ccccc2C(=O)O)c1Cl [MECLOFENAMIC ACID]	> 30 µM	> 30 µM	> 30 µM	> 30 µM	> 30 µM	> 30 µM	> 30 µM	> 30 µM
COCC(=O)O[C@]1(CCN(C)CCCc2nc3ccccc3[nH]2)CCc2cc(F)ccc2[C@@H]1C(C)C [MIBEFRADIL]	21.9 µM	> 30 µM	> 30 µM	> 30 µM	> 30 µM	> 30 µM	> 30 µM	1.58 µM
C[C@@H]1CN(c2c(F)c(N)c3c(=O)c(C(=O)O)cn(C4CC4)c3c2F)C[C@H](C)N1 [SPARFLOXACIN]	> 30 µM	> 30 µM	> 30 µM	> 30 µM	> 30 µM	> 30 µM	> 30 µM	> 30 µM
COC(=O)N[C@H](C(=O)N1CC2(CC2)C[C@H]1c1ncc(-c2ccc3c(c2)C(F)(F)c2cc(-c4ccc5nc([C@@H]6[C@H]7CC[C@H](C7)N6C(=O)[C@@H](NC(=O)OC)C(C)C)[nH]c5c4)ccc2-3)[nH]1)C(C)C	> 30 µM	> 10 µM	> 30 µM	> 30 µM	> 30 µM	> 30 µM	> 30 µM	> 30 µM
CN1CCCC(CC2c3ccccc3Sc3ccccc32)C1 (stereo not given) [METHIXENE]	25 µM	> 30 µM	> 30 µM	> 30 µM	> 30 µM	> 30 µM	20.3 µM	0.586 µM
Cc1cnc(C(=O)O)c[n+]1[O-] [ACIPIMOX]	> 30 µM	> 30 µM	> 30 µM	> 30 µM	> 30 µM	> 30 µM	> 30 µM	> 30 µM
CCOc1ccc(Cc2nccc3cc(OCC)c(OCC)cc23)cc1OCC [ETHAVERINE]	> 30 µM	> 30 µM	> 30 µM	> 30 µM	> 30 µM	> 30 µM	> 30 µM	9.55 µM
Cc1ccc2c([nH]c(=O)c3c(=O)cc(C(=O)OCCC(C)C)oc32)c1C	> 30 µM	> 30 µM	> 10 µM	6.76 µM	> 30 µM	> 30 µM	> 30 µM	> 30 µM
Cc1cn(-c2cc(NC(=O)c3ccc(C)c(Nc4nccc(-c5cnccn5)n4)c3)cc(C(F)(F)F)c2)cn1 [RADOTINIB]	> 30 µM	> 30 µM	> 30 µM	> 10 µM	> 30 µM	> 30 µM	> 30 µM	> 30 µM
COC(=O)Nc1nc2cc(C(=O)c3ccc(F)cc3)ccc2[nH]1 [FLUBENDAZOLE]	> 30 µM	> 30 µM	> 30 µM	> 30 µM	> 30 µM	> 30 µM	> 30 µM	> 30 µM
C[C@@H](O)[C@H]1C(=O)N2C(C(=O)O)=C(S[C@@H]3CN[C@H](C(=O)Nc4cccc(C(=O)O)c4)C3)[C@H](C)[C@H]12	> 30 µM	> 30 µM	> 30 µM	> 30 µM	> 30 µM	15.9 µM	> 30 µM	
COc1cc(C[C@@H]2NCCc3cc(O)c(O)cc32)cc(OC)c1OC [TRETOQUINOL]		> 30 µM	> 30 µM	> 30 µM	> 30 µM	> 30 µM	> 30 µM	> 30 µM
CC(CN(C)C)CN1c2ccccc2CCc2ccccc21 (stereo not given) [TRIMIPRAMINE]	9.64 µM	> 30 µM	> 30 µM	> 30 µM	> 30 µM	> 30 µM	> 30 µM	
Nc1ccn(C[C@@H](CO)OCP(=O)(O)O)c(=O)n1 [CIDOFOVIR]	> 30 µM	> 30 µM	> 30 µM	> 30 µM	> 30 µM		> 30 µM	> 30 µM
CCOC1O[C@H]([C@@H](COCc2ccccc2)OCc2ccccc2)[C@H](OCc2ccccc2)[C@H]1O (stereo not given in full) [TRIBENOSIDE]	> 30 µM	> 30 µM	> 30 µM	> 30 µM	> 30 µM		> 30 µM	15.2 µM
OC(CN1CCCCC1)c1cc(-c2ccccc2)on1 (stereo not given) [PERISOXAL]	> 30 µM	> 30 µM	> 30 µM	> 30 µM	> 30 µM	> 30 µM	15.8 µM	
C[C@H]1C[C@H]2[C@@H]3CCC4=CC(=O)C=C[C@]4(C)[C@@]3(F)[C@@H](O)C[C@]2(C)[C@@]1(O)C(=O)CO [BETAMETHASONE]	> 30 µM	11.4 µM	> 30 µM	> 30 µM	> 30 µM		> 30 µM	> 30 µM
CC(=O)OC1CN2CCC1CC2 (stereo not given) [ACECLIDINE]	> 30 µM	> 30 µM	> 30 µM	> 30 µM	> 30 µM	> 30 µM	> 30 µM	
NS(=O)(=O)c1cc2c(cc1Cl)NC(C(Cl)Cl)NS2(=O)=O (stereo not given) [TRICHLORMETHIAZIDE]	> 30 µM	> 30 µM	> 30 µM	> 30 µM	> 30 µM		> 30 µM	> 30 µM

— ChEMBL document CHEMBL5291721, “A preclinical secondary pharmacology resource illuminates target-adverse drug reaction associations of marketed drugs” (Nat Commun, 2023)
